This is an account of results in patent publication US11905259B1, “2-(benzo[d]oxazol-2-yl)-N′-(4-(dimethylamino)benzoyloxy)acetimidamide as an antimicrobial compound” (KING FAISAL UNIVERSITY, priority 2023, dated 2024).

Each structure is given as a SMILES string.

For data set [1], the system named is Pseudomonas aeruginosa. Put plainly: agar plate disc-diffusion, antibacterial activity. The data set is classed as cell-based. Here is the method: (§1) The agar plate disc-diffusion method was applied. […] The discs were then placed onto the surface of agar plates (nutrient agar for bacteria and Sabouraud's dextrose agar for fungi) seeded with the test organism. Each plate contained 15 mL of the agar medium, previously seeded with 0.2 mL of the broth culture of each organism pregrown for 18 hours. The plates were incubated at 37° C. for 48 hours, and 72 hours for fungi. The inhibition zones was measured in mm. Discs impregnated with DMSO were used as a control, and its inhibition zone was subtracted from the tested compound actual inhibition zone.
On the technique in general: Agar diffusion results depend on both activity and mobility in agar.

The test system of data set [2] is Staphylococcus aureus. Put plainly: agar plate disc-diffusion, antibacterial activity. The format is cell-based. The procedure:
as §1

For data set [3], the system named is Bacillus cereus. Put plainly: agar plate disc-diffusion, antibacterial activity. The data set is classed as cell-based. Here is the method:
as §1

Data set [4] concerns Escherichia coli. As to the kind of experiment: agar plate disc-diffusion, antibacterial activity. The data set is classed as cell-based. The procedure: as §1
The test system of data set [5] is Aspergillus flavus. Put plainly: agar plate disc-diffusion, antifungal activity. The data set is classed as cell-based. The procedure:
(§2) The agar plate disc-diffusion method was applied. Sterilized filter papers (6 mm in diameter) were wetted with 10 μL of a solution of 2-(benzo[d]oxazol-2-yl)-N′-(4-(dimethylamino)benzoyloxy)acetimidamide (3) to be tested, containing 10 mg/mL in DMSO, and the discs were allowed to air dry. The discs were then placed onto the surface of agar plates (nutrient agar for bacteria and Sabouraud's dextrose agar for fungi) seeded with the test organism. Each plate contained 15 mL of the agar medium, previously seeded with 0.2 mL of the broth culture of each organism pregrown for 18 hours. The plates were incubated at 37° C. for 48 hours, and 72 hours for fungi. The inhibition zones was measured in mm. Discs impregnated with DMSO were used as a control, and its inhibition zone was subtracted from the tested compound actual inhibition zone.

Data set [6] has as its system Chrysosporium keratinophilum. As to the kind of experiment: agar plate disc-diffusion, antifungal activity. The format is cell-based. The procedure:
as §1

Data set [7] deals with different microbes. Put plainly: antimicrobial screening, overall statement. The format is cell-based. Particulars: against different microbes (bacteria and fungi screened). Here is the method: as §2
Where [8] appears, read: A = concentration of comp. = 10,000 uL.
Setting [9] is: B = concentration of comp. = 30,000 uL.
Setting [10] is: C = concentration of comp. = 50,000 uL.

In the case of `O=C(O)c1cn(C2CC2)c2cc(N3CCNCC3)c(F)cc2c1=O` [Cip., ciprofloxacin, reference compound], the inhibition zone is on record as 29 mm in data set [1] (setting [8]); 30 mm in data set [1] (setting [9]); 53 mm in data set [1] (C =); 43 mm in data set [2] (setting [8]); 44 mm in data set [2] (setting [9]); 53 mm in data set [2] (C = concentration of comp.). Also, the inhibition zone in data set [3] (setting [8]) stood at 29 mm; in data set [3] (setting [9]), 31 mm; in data set [3] (setting [10]), 42 mm; in data set [4] (setting [8]), 30 mm; in data set [4] (setting [9]) it was 39 mm; in data set [4] (setting [10]) it was 60 mm. The inhibition zone turned out to be 28 mm in data set [5] (setting [8]); 31 mm in data set [5] (setting [9]); 43 mm in data set [5] (setting [10]); 30 mm in data set [6] (setting [8]); 33 mm in data set [6] (setting [9]); 55 mm in data set [6] (setting [10]).
What is called melting point is the temperature, or range, at which the solid turns liquid. For `CN(C)c1ccc(C(=O)O/N=C(\N)Cc2nc3ccccc3o2)cc1` [Compound 3, 2-(benzo[d]oxazol-2-yl)-N′-(4-(dimethylamino)benzoyloxy)acetimidamide], the melting point lay within 165 to 166 °C. In addition, the antimicrobial activities result in data set [7] is recorded as “excellent”. This molecule also displayed an inhibition zone in data set [1] (setting [8]) of 25 mm. This molecule also yielded an inhibition zone in data set [1] (setting [9]) of 28 mm. The inhibition zone in data set [1] (C =) turned out to be 39 mm. Besides, in data set [2] (setting [8]), the inhibition zone came to 17 mm. Further, the inhibition zone in data set [2] (setting [9]) worked out at 22 mm. This molecule showed an inhibition zone in data set [2] (C = concentration of comp.) of 34 mm. This molecule yielded an inhibition zone in data set [3] (setting [8]) of 26 mm. In data set [3] (setting [9]), this molecule returned an inhibition zone of 28 mm. In data set [3] (setting [10]), this molecule returned an inhibition zone of 41 mm. In addition, the inhibition zone in data set [4] (setting [8]) is given as 27 mm. Also, the inhibition zone in data set [4] (setting [9]) is 34 mm. Further, the inhibition zone in data set [4] (setting [10]) stood at 49 mm. The inhibition zone in data set [5] (setting [8]) is reported as 21 mm. This molecule also registered an inhibition zone in data set [5] (setting [9]) of 25 mm. In addition, the inhibition zone in data set [5] (setting [10]) is on record as 37 mm. This molecule displayed an inhibition zone in data set [6] (setting [8]) of 25 mm. In data set [6] (setting [9]), the inhibition zone is listed as 29 mm. For the same molecule, in data set [6] (setting [10]), the inhibition zone was 46 mm.
